From patent US20220062173A1, “LIQUID COMPOSITIONS” (JOHNSON & JOHNSON CONSUMER INC., priority 2019, published 2022)
“Also recorded” adds a separate entry of the source.

Key:
[1] = solvents named; cited from earlier work
oral cavity = assay: Taste-test evaluation of cooling sensates in base cough-cold liquid; type: in vivo; settings: for Cooling site: area within the oral cavity where cooling could be felt; for Cooling Intensity: sensate in base cough-cold liquid at the listed addition level
Experimental: Various polymeric additives were combined into a base cough-cold liquid formula to determine interaction, and included various grades of Avicel®, CMC, HPMC among others. A synergistic effect was observed when Poloxamer was also included in the formulation containing above mentioned rheology modifier and a cooling flavor. A cooling sensation in the back of the throat could be felt, and the sensation lasted longer (approximately 5-10 min or even longer in some instances). […] The presence of just the viscosity modifiers and no Poloxamer, the same flavor did provide targeted cooling, but the extent and duration was less.
(§1) Cooling sensate samples were requested from various flavor suppliers and were included into the formulation at a level recommended by the manufacturer and evaluated by various individuals in terms of cooling efficiency/intensity, area within the oral cavity where cooling could be felt, cooling onset time, and duration of cooling. It was interesting to see that all the sensate provided different degree of cooling and the area within the oral cavity where cooling could be felt was different.
Mixing Procedure: The following procedure was used to mix the materials in Table 3. The formulation was prepared by adding purified water to a suitable vessel. The Avicel RC591 was then added while mixing using a high shear mixer until dissolved, followed by addition of propylene glycol while mixing using a propeller mixer at about 500-1000 RPM. The rest of the ingredients were added and mixed at approximately 50-100 RPM for at least 30 minutes. After complete dissolution, the solution was heated using a water bath to a temperature between […] for 15 minutes while continuously stirring. The solution was cooled to room temperature before adding propylene glycol while mixing. The rest of the ingredients were added and mixed for at least 30 minutes.

[2] = Solution conductivity measurement; type: physicochemical
Experimental: Conductivity of solutions containing Poloxamer-188 and Cooler #2 in purified water at different concentrations was measured using a MultiLab 4010-2 conductivity meter with an IDS 4320 Conductivity and Temperature Sensor.
It is important to note that the solutions turned cloudy once Cooler #2 was added to the solution, indicating formation of an emulsion. The turbidity of the solutions was not very different as the level of Cooler #2 was increased.
Conductivity of the Water-PG solutions containing 0.35% CMC and 0.35% HPMC was also measured in water and in combination with Cooler #2 and Poloxamer. The conductivity results are summarized below in Table 5.

throat = assay: Additional cooling evaluation, targeted throat cooling; type: in vivo; settings: Yes/No
Text: as §1

Conductivity ([2]; 0.05% of Cooler #2, 0.4% Poloxamer, Water-5% propylene glycol, about 7.4 without cooler) | Structure (SMILES) | Solubility [1] | Synergistic sensate effect (oral cavity) | Cooling site (oral cavity) | Cooling site (oral cavity; listed as IFF cooler #2) | Duration (oral cavity; duration of cooling) | Overall (oral cavity; overall taste evaluation) | Cooling Intensity (oral cavity) | Onset time (oral cavity; values in secs) | Effect on conductivity of the solution ([2]; purified water, Poloxamer-188 0.2% to 2.0%, 0.15% of Cooler #2) | Targeted Throat Cooling (throat) | Duration (oral cavity; Table 3) | Overall (oral cavity; Table 3) | Onset time (oral cavity; Table 3, values in secs) | Onset time (oral cavity; in words) | Onset time (oral cavity; Table 3, values in min) | Cooling site (oral cavity; listed as Symcool®WS-3) | Cooling site (oral cavity; listed as Symcool WS-5)
about 35 μS/cm | CC(C)[C@@H]1CC[C@@H](C)C[C@H]1OC(=O)CCCC(=O)O (stereo in doubt) [Cooler #2, Monomenthyl Glutarate] | Ethanol and Propylene Glycol, insoluble in Water | Did work, providing synergistic sensate effect | all the cooling was in the back of the throat | Throat | 7 to 9 min | Cooling concentrated towards the back of the throat, intensity grows with time and duration longer than others | Mild to medium cooling | ~30 s | significant effect on the conductivity of the solution at lower concentrations of Poloxamer-188 | Yes | – | – | – | – | – | – | –
– | CC(C)[C@@H]1CC[C@@H](C)C[C@H]1O [Menthol, (1R,2S,5R)-2-isopropyl-5-methylcyclohexanol, reference compound] | – | – | Throat and some in oral cavity tongue and front of the mouth | – | – | Cooling noticeable on tongue and front of the mouth and throat | Intense cooling | – | – | No | 5 to 6 min | Cooling | ~10 s | Immediate | – | – | –
– | CC(O)C(=O)O[C@@H]1C[C@H](C)CC[C@H]1C(C)C (stereo partly shown) [Symcool NAT, Menthyl Lactate] | Propylene glycol, ethanol | Did work, providing synergistic sensate effect | cooling in mouth, tongue along with some cooling in the back of the throat; also recorded: Tongue and some throat cooling | – | – | Liquorish taste and cooling in the mouth and towards the back of the throat, cooling in throat as you breath in, intensity grows with time | medium cooling | – | – | Yes | 5 to 6 min | Medium | ~10 s | immediate | – | – | –
– | COc1ccc(NC(=O)[C@@H]2C[C@H](C)CC[C@H]2C(C)C)cc1 [WS 12, (1R,2S,5R)-N-(4-methoxyphenyl)-5-methyl-2-(1-methylethyl) cyclohexanecarboxamide] | – | – | mostly tongue and some in upper throat | – | – | Mild cooling noticeable on tongue and some back of the throat | Mild Cooling | – | – | No | 5 to 7 min | Mild cooling | – | – | 60 to 120 s | – | –
– | CNC(=O)C(C)(C(C)C)C(C)C [WS 23, 2-isopropyl-N,2,3-trimethylbutyramide] | – | – | tongue and front of the mouth | – | – | Mild cooling noticeable on tongue, and front of the mouth, tingling and nose cooling as you breath out | Mild Cooling, less than WS-3 and WS-5 | ~10 s | – | No | 3 to 4 min | Mild cooling | ~10 s | – | – | – | –
– | CCNC(=O)[C@@H]1C[C@H](C)CC[C@H]1C(C)C [WS-3, N-ethyl 2-isopropyl-5-methylcyclohexanecarboxamide] | Propylene Glycol, ethanol, insoluble in water | Did work, providing synergistic sensate effect | cooling in mouth, tongue along with some cooling in the back of the throat | – | – | Intense cooling noticeable all around, tongue, and upper throat, sweeter sensation like menthol | Intense Cooling, more intense than WS-5 | ~10 s | – | Yes | 4 to 5 min | Intense | ~10 s | – | – | towards the back on mouth, upper throat, and tongue | –
– | CCOC(=O)CNC(=O)[C@@H]1C[C@H](C)CC[C@H]1C(C)C [WS-5, N-[(ethoxycarbonyl)methyl)-p-menthane-3-carboxamide] | Propylene Glycol, ethanol, insoluble in water | Did work, providing synergistic sensate effect | cooling in mouth, tongue along with some cooling in the back of the throat | – | 6 to 7 min | Intense cooling noticeable all around the oral cavity, tongue, and upper throat | Intense Cooling | ~10 s | – | Yes | 6 to 7 min | Intense cooling | ~10 s | – | – | – | towards the back on mouth, upper throat, and tongue
